Measurements taken from patent publication US20220332774A1, “THERAPEUTIC MITOCHONDRIAL PEPTIDES” (priority 2019, published 2022).

Assays:
[1] = system: C2C12 Cells; test: Glucose utilization in cultured C2C12 cells (myotubes); assay type: cell-based, mouse; conditions: 22 h; for Percent of Control Activity: glucose concentration in medium relative to untreated cells, 5 μM peptide
Procedure: The effect of the peptides on glucose homeostasis can be assessed using an assay to monitor glucose utilization by cultured cells such as mouse myotubes. Peptide arrays were initially prepared as 5 mM stock in DMSO and diluted to 0.5 mM in H2O; peptides were used at a final concentration of 5 μM (0.1% DMSO). Calculations for peptide concentrations based on approximate molecular weight of 2000 Daltons. C2C12 mouse muscle cell line was purchased from Millipore Sigma (Saint Louis, Mo.). C2C12 cells were seeded in standard medium (DMEM/low glucose (1 g/L)+10% Fetal Bovine Serum+antibiotics) at 7,500 cells/well on 96-well plates and grown to confluence at 37° C. in a humidified atmosphere of 5% CO2/95% air. Three days after plating the medium was removed and with Differentiation Medium (DMEM/low glucose (1 g/L)+2% Horse Serum+antibiotics) added. The cultures were placed at 37° C. in a humidified atmosphere of 5% CO2/95% air for 5 days with partially replacement of medium daily. After 5 days of differentiation, the medium was removed from myotube cultures and replaced with Assay Medium (DMEM/low glucose (1 g/L)+antibiotics). Culture were placed at 37° C. in a humidified atmosphere of 5% CO2/95% air for 5 h. Following the 5 h incubation the medium was removed and fresh Assay Medium containing compounds was added; 5 μM peptide or 1 mM metformin as a potent stimulator of glucose utilization. Cells were incubated for 22 h at 37° C. in a humidified atmosphere of 5% CO2/95% air. Following 22 h incubation, conditioned medium from each well was transferred to a fresh 96-well plate. Glucose concentrations in the medium were determined using a Glucose Assay kit (Abcam; Cambridge, Mass.) according to the manufacturer's instructions; absorbance measured using a Cytation 3 plate reader at 570 nm (BioTek, Winooski, Vt.). Untreated cells were used as reference for basal glucose utilization. Absorbance values were expressed as percent control activity relative to untreated treated cells for 5 μM peptide. The relative standard deviation from plate to plate of untreated control was <10%. […] Data presented are representative values from 2-3 independent experiments with each data point performed in triplicate in each independent experiment.

[2] = system: 3T3-L1 Mouse Adipocytes; test: Free fatty acid levels in cultured 3T3-L1 mouse adipocytes (isoproterenol stimulated); assay type: cell-based; conditions: for Percent of Isoproterenol Control Activity: free fatty acid in medium, 5 μM peptide, 20-22 h pre-incubation then 3 h with 0.1 nM isoproterenol, isoproterenol alone = 100%
Procedure: The effect of the peptides on fatty acid metabolism can be assessed using an assay to monitor free fatty acid levels produced by cultured cells such as mouse adipocytes. Peptide arrays were initially prepared as 5 mM stock in DMSO and diluted to 0.5 mM in H2O; peptides were used at a final concentration of 5 μM (0.1% DMSO). Calculations for peptide concentrations based on approximate molecular weight of 2000 Daltons. […] Mouse 3T3-L1 cells purchased from ZenBio (Research Triangle Park, NC) were seeded at 3,000 cells per well in 96-well plates in Pre-adipocyte Medium (Zen-Bio) and grown to confluence at 37° C. in a humidified atmosphere of 5% CO2/95% air. Two days after confluence, cells were placed in Adipocyte Differentiation Medium (Zen-Bio) and cultured for three additional days at 37° C. in a humidified atmosphere of 5% CO2/95% air. The culture medium was then replaced with Adipocyte Maintenance Medium (Zen-Bio) and the cells maintained for an additional 9 days at 37° C. in a humidified atmosphere of 5% CO2/95% air with partial medium replacement every other day. Following 12 days of differentiation, medium was replaced Adipocyte Maintenance Medium without insulin and the cultures placed at 37° C. in a humidified atmosphere of 5% CO2/95% air. On day 13 of differentiation, test peptides were added directly to each well (without replacing the medium) at a final concentration of 5 μM in 0.1% DMSO and incubated for 20-22 hours at 37° C. in a humidified atmosphere of 5% CO2/95% air. […] Cells were incubated for 3 hours in Assay Buffer (Zen-Bio) at 37° C. in a humidified atmosphere of 5% CO2/95% air. Following 3 h incubation, conditioned medium from each well was transferred to a fresh 96-well plate. Free fatty acid concentrations in the medium were determined using a Free Fatty Acid Assay kit (Zen-Bio) according to the manufacturer's instructions; absorbance was measured using a Cytation 3 plate reader at 540 nm (BioTek, Winooski, Vt.). Treatment with 0.1 nM isoproterenol alone was used as the free fatty acid level stimulatory control. Absorbance values were expressed as percent control activity relative to 0.1 nM isoproterenol alone treated cells, 100%. The relative standard deviation of the isoproterenol control was <10%. Insulin at 0.25 nM was used as a potent control for decreasing free fatty acid levels. […] Data presented are representative values from 2 independent experiments with each data point performed in triplicate in each independent experiment.

[3] = system: H4-IIE Cells; test: Glucose production in cultured H4-IIE cells; assay type: cell-based, rat; conditions: 24 h; for Percent of Control Activity: glucose concentration in medium relative to untreated cells, 5 μM peptide
Procedure: The effect of the peptides on glucose homeostasis can be assessed using an assay to monitor glucose production by cultured cells such as rat hepatocytes. Peptide arrays were initially prepared as 5 mM stock in DMSO and diluted to 0.5 mM in H2O; peptides were used at a final concentration of 5 μM (0.1% DMSO). Calculations for peptide concentrations based on approximate molecular weight of 2000 Daltons. H4-IIE rat hepatic cell line was purchased from American Type Culture Collection (Manassas, Va.). H4-IIE cells were seeded in standard medium (DMEM/high glucose+10% Fetal Bovine Serum+antibiotics) at 100,000 cells/well on 96-well plates and allowed to adhere overnight at 37° C. in a humidified atmosphere of 5% CO2/95% air. 24 h after seeding, the medium was removed, cells were rinsed with glucose free DMEM, and the medium replaced with Glucose Production Medium (glucose free DMEM+2 mM sodium pyruvate+10 mM sodium lactate+antibiotics). The cultures were placed at 37° C. in a humidified atmosphere of 5% CO2/95% air overnight. The next morning, the medium was removed and fresh Glucose Production Medium containing compounds was added; 5 uM peptide or 0.5-1 nM insulin as a potent inhibitor of glucose production. Cells were incubated for 24 h at 37° C. in a humidified atmosphere of 5% CO2/95% air. Following 24 h incubation, conditioned medium from each well was transferred to a fresh 96-well plate. Glucose concentrations in the medium were determined using a Glucose Assay kit (Abcam; Cambridge, Mass.) according to the manufacturer's instructions; absorbance measured using a Cytation 3 plate reader at 570 nm (BioTek, Winooski, Vt.). Untreated cells were used as reference for maximal glucose production. Absorbance values were expressed as percent control activity relative to untreated treated cells for 5 μM peptide. The relative standard deviation from plate to plate of untreated control was <25%. […] Glucose levels for 0.5-1 nM insulin treatment were <5% of the untreated control value. Data are presented as representative values from 2-3 independent experiments with each data point performed in triplicate in each independent experiment.

Compound	Percent of Control Activity [1] [%]	Percent of Isoproterenol Control Activity [2] [%]	Percent of Control Activity [3] [%]	reduction of extracellular glucose compared to untreated controls ([1]; metformin 1 mM, across all plates)	Free fatty acid levels ([2]; insulin 0.25 nM with 0.1 nM isoproterenol, 3 h)	Glucose levels, % of the untreated control value ([3]; 0.5-1 nM insulin) [%]
1 (MAAAPSGCPDPTS) [compound 1]	99	85	128			
2 (MAASVERGFIFLV) [compound 2]	99	93	119			
3 (MAGGFMLMIVVMKLMAPKMEETPA) [compound 3]	94	91	118			
4 (MAHTFPLNKTSR) [compound 4]	101	80	116			
5 (MAHYSQIPSRPHGWPPSD) [compound 5]	101	98	122			
6 (MAIAVVYPKTTIIPPK) [compound 6]	100	80	122			
8 (MAPPLPPLEPTVKLT) [compound 8]	102	102	90			
9 (MAQTMPMYPNGSFFPE) [compound 9]	98	98	90			
10 (MATKKNFMEKGTRAGDMGSKPHS) [compound 10]	100	94	87			
11 (MAVVDGWVNTWVVPKSASPWKN) [compound 11]	96	84	76			
13 (MCSCVYVYSYCKYMVCSHDKP) [compound 13]	101	92	87			
14 (MDGCALLAVL) [compound 14]	100	101	120			
15 (MDMVPQGKDEKL) [compound 15]	96	90	88			
16 (MDSWVVGVNEWG) [compound 16]	100	89	89			
18 (MEAMGLAWNQLWGVRFLPFLS) [compound 18]	97	102	99			
19 (METDLDYSGLNSDHVGL) [compound 19]	94	89	99			
20 (MFDQENVVTSTESSPS) [compound 20]	102	88	97			
23 (MFHLRYHNHRYPHRRQSI) [compound 23]	99	94	96			
24 (MFKLSFYFYVV) [compound 24]	94	92	96			
25 (MFLVGWWGMV) [compound 25]	97	91	94			
26 (MGACQGGSDESN) [compound 26]	99	93	97			
27 (MGCDDNVVDVVVT) [compound 27]	95	87	100			
CN(C)C(=N)N=C(N)N [Metformin, reference compound]				50-70%		
insulin [reference compound]					at or below levels for unstimulated control without isoproterenol	< 5
